Like-named read-outs stand apart in the source and are kept apart here.
Legend:
log D determination = assay type: physicochemical; details: read-out: log D
Protocol: (§1) The ^68Ge/^68Ga generator, devices for analytical HPLC, semipreparative HPLC, mass spectrometry, radio-thin layer chromatography, gamma counter and animal models for biodistribution and imaging studies including the image reconstruction procedures were the same as described before.[22] Stability assays in PBS and human blood serum, protein binding as well as determination of log D values followed established protocols.[25] Binding affinities (IC50) of selected ligands were determined in an isolated receptor-based assay according to a previously published procedure with minor modifications.[22] Dilutions of nonradioactive complexes were made with PBS + 0.1% BSA (10^–5–10^–12 M). Preparation of [^125I]I-Asialoorosomucoid which serves as the radioactive standard ligand has been published recently.[21]

ASGR = biological target: T1, ASGR (Mus musculus, UniProt P24721+P34927); assay: blocking experiment, coinjection of N-acetylgalactosamine, biodistribution in BALB/c mice; details: in vivo, 30 min p.i., 27.7 μmol N-acetylgalactosamine
T1 construct: from tissue; host or cells: liver and other organs of living healthy female BALB/c mice
T1 sequence (P34927 1-284): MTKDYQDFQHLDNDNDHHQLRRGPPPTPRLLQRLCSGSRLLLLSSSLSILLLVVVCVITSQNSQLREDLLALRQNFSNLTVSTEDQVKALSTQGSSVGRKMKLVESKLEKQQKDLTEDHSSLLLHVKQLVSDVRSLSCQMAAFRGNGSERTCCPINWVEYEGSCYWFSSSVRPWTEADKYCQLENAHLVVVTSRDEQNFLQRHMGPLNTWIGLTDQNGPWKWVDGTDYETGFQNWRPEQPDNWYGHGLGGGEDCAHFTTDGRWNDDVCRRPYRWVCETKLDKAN
T1 sequence (P24721 1-301): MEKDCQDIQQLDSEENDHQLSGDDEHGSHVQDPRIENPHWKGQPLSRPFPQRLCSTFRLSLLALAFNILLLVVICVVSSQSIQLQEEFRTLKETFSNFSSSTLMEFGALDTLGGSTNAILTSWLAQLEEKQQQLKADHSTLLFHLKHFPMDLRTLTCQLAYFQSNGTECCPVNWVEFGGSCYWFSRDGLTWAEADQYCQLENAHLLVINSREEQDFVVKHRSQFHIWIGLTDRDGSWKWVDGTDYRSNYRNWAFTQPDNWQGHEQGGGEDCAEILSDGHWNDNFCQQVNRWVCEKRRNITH
Protocol: Less liver uptake was found for [^68Ga]Ga-NODAGA-HexaLysan (55.5 ± 7.4% ID/g, 30 min p.i.) and least for [^68Ga]Ga-NODAGA-TriLysan (9.4 ± 2.0% ID/g, 30 min p.i.). […] However, an increasing activity accumulation in the intestine was found for [^68Ga]Ga-NODAGA-NonaLysan, [^68Ga]Ga-NODAGA-GalNAc-Nonalysan, and [^68Ga]Ga-NODAGA-HexaLysan over time. Nevertheless, liver-to-organ ratios were highest for [^68Ga]Ga-NODAGA-NonaLysan (Figure 3). Lower liver-to-organ ratios were found for the GalNAc derivative due to higher off-target binding in the pancreas, stomach, heart, muscle, lung, and femur. […] Coinjection of both nonamers with a large excess of N-acetylgalactosamine led to a statistically significant reduction of liver uptake indicating specific interactions of the tracers with their target (Figure 4). As a consequence of the reduced liver uptake also a reduction of the intestinal uptake was observed.
Figure 4 Data (% ID/g) from the blocking experiments using ^68Ga-labeled NODAGA-GalNAc-NonaLysan and NODAGA-NonaLysan in healthy BALB/c mice at 30 min p.i. Blocking was carried out using 27.7 μmol of N-acetylgalactosamine (**p ≤ 0.01; *p ≤ 0.05).

[1] = biodistribution in healthy BALB/c mice; details: mouse, in vivo; for tissue uptake at 10 min: 10 min p.i.; for tissue uptake at 0.5 h: 30 min p.i.; for tissue uptake at 1 h: 60 min p.i.
Protocol: as §1
Animal experiments were performed in accordance with the Austrian animal experiments law (BGBl. I Nr. 114/2012) and the institution’s animal welfare standards as approved by the Austrian Federal Ministry of Education, Science and Research (BMBWF, 2022–0.311.708). Imaging experiments were conducted at Werner Siemens Imaging Center (Tübingen, Germany) according to the German animal welfare act as approved by the local authorities (R5/19 G, R09/21 G).
Figure 2 Biodistribution data (% ID/g) of ^68Ga-labeled NODAGA-GalNAc-NonaLysan, NODAGA-NonaLysan, NODAGA-HexaLysan, and NODAGA-TriLysan in healthy BALB/c mice at 10, 30, and 60 min p.i. (100 pmol, 1 MBq).

[2] = complex stability in human blood serum; assay type: in vitro ADME
Protocol: as §1

complex stability in PBS = assay type: physicochemical
Protocol: as §1

[3] = protein binding in human serum; assay type: in vitro ADME; details: human, serum, read-out: protein binding (%) (converted)
Protocol: as §1

For `CC(=O)N[C@@H]1[C@@H](O)[C@@H](O)[C@@H](CO)O[C@H]1n1cc(CCCCC(=O)NCCCC[C@H](NC(=O)CCCNC(=O)CCC(C(=O)O)N2CCN(CC(=O)O)CCN(CC(=O)O)CC2)C(=O)NCC(=O)NCC(=O)N[C@@H](CCCCNC(=O)CCCCc2cn([C@@H]3O[C@H](CO)[C@H](O)[C@H](O)[C@H]3NC(C)=O)nn2)C(=O)NCC(=O)NCC(=O)N[C@@H](CCCCNC(=O)CCCCc2cn([C@@H]3O[C@H](CO)[C@H](O)[C@H](O)[C@H]3NC(C)=O)nn2)C(=O)NCC(=O)NCC(=O)N[C@@H](CCCCNC(=O)CCCCc2cn([C@@H]3O[C@H](CO)[C@H](O)[C@H](O)[C@H]3NC(C)=O)nn2)C(=O)NCC(=O)NCC(=O)N[C@@H](CCCCNC(=O)CCCCc2cn([C@@H]3O[C@H](CO)[C@H](O)[C@H](O)[C@H]3NC(C)=O)nn2)C(=O)NCC(=O)NCC(=O)N[C@@H](CCCCNC(=O)CCCCc2cn([C@@H]3O[C@H](CO)[C@H](O)[C@H](O)[C@H]3NC(C)=O)nn2)C(=O)NCC(=O)NCC(=O)N[C@@H](CCCCNC(=O)CCCCc2cn([C@@H]3O[C@H](CO)[C@H](O)[C@H](O)[C@H]3NC(C)=O)nn2)C(=O)NCC(=O)NCC(=O)N[C@@H](CCCCNC(=O)CCCCc2cn([C@@H]3O[C@H](CO)[C@H](O)[C@H](O)[C@H]3NC(C)=O)nn2)C(=O)NCC(=O)NCC(=O)N[C@@H](CCCCNC(=O)CCCCc2cn([C@@H]3O[C@H](CO)[C@H](O)[C@H](O)[C@H]3NC(C)=O)nn2)C(=O)NCC(=O)NCC(N)=O)nn1` (stereo partly drawn) [[^68Ga]Ga-NODAGA-GalNAc-NonaLysan, metal not drawn], the logD (log D determination) was -4.05, the tissue uptake at 0.5 h (ASGR; read-out: Blood uptake) was 0.4 ± 0.1 %ID/g and the tissue uptake at 0.5 h (ASGR; read-out: Femur uptake) was 0.7 ± 0.3 %ID/g. The tissue uptake at 0.5 h (ASGR; read-out: Heart uptake) was 0.8 ± 0.1 %ID/g, the tissue uptake at 0.5 h (ASGR; read-out: Intestine uptake) was 1.9 ± 0.4 %ID/g and the tissue uptake at 0.5 h (ASGR; read-out: Kidneys uptake) was 1.9 ± 0.4 %ID/g. For the same molecule, the tissue uptake at 0.5 h (ASGR; read-out: Liver uptake) was 52.9 ± 3.2 %ID/g, the tissue uptake at 0.5 h (ASGR; read-out: Lung uptake) was 1.3 ± 0.3 %ID/g and the tissue uptake at 0.5 h (ASGR; read-out: Muscle uptake) was 1 ± 0.3 %ID/g. The tissue uptake at 0.5 h (ASGR; read-out: Pancreas uptake) was 1.5 ± 0.8 %ID/g, the tissue uptake at 0.5 h (ASGR; read-out: Spleen uptake) was 0.3 ± 0.02 %ID/g and the tissue uptake at 0.5 h (ASGR; read-out: Stomach uptake) was 2.4 ± 0.9 %ID/g. The tissue uptake at 10 min ([1]; read-out: Blood uptake) was 0.9 ± 0.5 %ID/g, the tissue uptake at 10 min ([1]; read-out: Femur uptake) was 0.9 ± 0.4 %ID/g and the tissue uptake at 10 min ([1]; read-out: Heart uptake) was 1.9 ± 0.5 %ID/g. For the same molecule, the tissue uptake at 10 min ([1]; read-out: Intestine uptake) was 1.3 ± 0.3 %ID/g, the tissue uptake at 10 min ([1]; read-out: Kidneys uptake) was 3.6 ± 2.7 %ID/g and the tissue uptake at 10 min ([1]; read-out: Liver uptake) was 69.4 ± 5 %ID/g. For the same molecule, the tissue uptake at 10 min ([1]; read-out: Lung uptake) was 1.5 ± 0.1 %ID/g, the tissue uptake at 10 min ([1]; read-out: Muscle uptake) was 1.3 ± 0.3 %ID/g and the tissue uptake at 10 min ([1]; read-out: Pancreas uptake) was 5 ± 0.5 %ID/g. It also gave a tissue uptake at 10 min ([1]; read-out: Spleen uptake) of 0.3 ± 0.1 %ID/g, a tissue uptake at 10 min ([1]; read-out: Stomach uptake) of 2.3 ± 0.4 %ID/g and a tissue uptake at 0.5 h ([1]; read-out: Blood uptake) of 0.3 ± 0.1 %ID/g. It also gave a tissue uptake at 0.5 h ([1]; read-out: Femur uptake) of 0.8 ± 0.1 %ID/g, a tissue uptake at 0.5 h ([1]; read-out: Heart uptake) of 1.7 ± 0.2 %ID/g and a tissue uptake at 0.5 h ([1]; read-out: Intestine uptake) of 3.5 ± 0.2 %ID/g. The tissue uptake at 0.5 h ([1]; read-out: Kidneys uptake) was 1.5 ± 0.2 %ID/g, the tissue uptake at 0.5 h ([1]; read-out: Liver uptake) was 77.6 ± 8 %ID/g and the tissue uptake at 0.5 h ([1]; read-out: Lung uptake) was 1.5 ± 0.2 %ID/g. For the same molecule, the tissue uptake at 0.5 h ([1]; read-out: Muscle uptake) was 1.2 ± 0.1 %ID/g, the tissue uptake at 0.5 h ([1]; read-out: Pancreas uptake) was 5.6 ± 0.6 %ID/g and the tissue uptake at 0.5 h ([1]; read-out: Spleen uptake) was 0.3 ± 0.03 %ID/g. It also gave a tissue uptake at 0.5 h ([1]; read-out: Stomach uptake) of 2.7 ± 1 %ID/g, a tissue uptake at 1 h ([1]; read-out: Blood uptake) of 0.3 ± 0.1 %ID/g and a tissue uptake at 1 h ([1]; read-out: Femur uptake) of 0.9 ± 0.4 %ID/g. The tissue uptake at 1 h ([1]; read-out: Heart uptake) was 1.7 ± 0.1 %ID/g, the tissue uptake at 1 h ([1]; read-out: Intestine uptake) was 5.6 ± 0.03 %ID/g and the tissue uptake at 1 h ([1]; read-out: Kidneys uptake) was 1.3 ± 0.02 %ID/g. For the same molecule, the tissue uptake at 1 h ([1]; read-out: Liver uptake) was 57.6 ± 0.7 %ID/g, the tissue uptake at 1 h ([1]; read-out: Lung uptake) was 1.2 ± 0.04 %ID/g and the tissue uptake at 1 h ([1]; read-out: Muscle uptake) was 1.1 ± 0.1 %ID/g. For the same molecule, the tissue uptake at 1 h ([1]; read-out: Pancreas uptake) was 5 ± 0.6 %ID/g, the tissue uptake at 1 h ([1]; read-out: Spleen uptake) was 0.3 ± 0.1 %ID/g and the tissue uptake at 1 h ([1]; read-out: Stomach uptake) was 2.2 %ID/g. The “complex stability in serum (% intact ligand)” value ([2]; 2 min) was 98.8 ± 0.1%, the “complex stability in serum (% intact ligand)” value ([2]; 30 min) was 98.8% and the “complex stability in serum (% intact ligand)” value ([2]; 60 min) was 99.0 ± 0.2%. The “complex stability in serum (% intact ligand)” value ([2]; 120 min) was 98.8 ± 0.2%, the “complex stability in PBS (% intact ligand)” value (complex stability in PBS; 2 min) was 99.1% and the “complex stability in PBS (% intact ligand)” value (complex stability in PBS; 30 min) was 99.0%. For the same molecule, the “complex stability in PBS (% intact ligand)” value (complex stability in PBS; 60 min) was 99.1%, the “complex stability in PBS (% intact ligand)” value (complex stability in PBS; 120 min) was 99.1% and the fraction unbound ([3]; 2 min) was 0.858. It also gave a fraction unbound ([3]; 30 min) of 0.86, a fraction unbound ([3]; 60 min) of 0.826 and a fraction unbound ([3]; 120 min) of 0.884.

Reference: publication PMC11881035, “^68Ga-Labeled Glycopeptides as Effective Tools for Liver Function Imaging” (Molecular Pharmaceutics, 2025)
